Read-outs that look alike come from different tables or passages of the source.
Key:
CCK-B receptor = CCK-B receptor (Cavia porcellus, UniProt H0VZC5); assay: CCK receptor binding, guinea pig cortex assay; set-up: CCK-B receptor (guinea pig cortex assay); from tissue; host or cells: guinea pig cortex
Description: The greater affinity of the compounds of the invention for the CCK-B receptor over the CCK-A receptor has also been established using the CCK receptor binding assays described by G Dal Fornos et al., J. Pharmcol. Exp & Ther. 261, 1056-1063, 1992.
The binding affinity of the compounds of the invention for the CCK-A receptor (Pancreas Assay) and CCK-B receptor (guinea pig cortex assay) was determined using the procedure of G Dal Forno et al J. Pharmacol. Exp & Ther. 261 - 1056-1063. The pKi values determined with respresentative compounds of invention were as follows: […]

CCK-A receptors = target: T1, CCK-A receptors (Cavia porcellus, UniProt Q63931); assay: CCK-A antagonist activity, guinea pig isolated ileum longitudinal muscle myenteric plexus preparation; type: cell-based
T1 construct: guinea pig isolated ileum longitudinal muscle myenteric plexus preparation; from tissue; host or cells: guinea pig isolated ileum longitudinal muscle-myenteric plexus
T1 sequence (Q63931 1-430): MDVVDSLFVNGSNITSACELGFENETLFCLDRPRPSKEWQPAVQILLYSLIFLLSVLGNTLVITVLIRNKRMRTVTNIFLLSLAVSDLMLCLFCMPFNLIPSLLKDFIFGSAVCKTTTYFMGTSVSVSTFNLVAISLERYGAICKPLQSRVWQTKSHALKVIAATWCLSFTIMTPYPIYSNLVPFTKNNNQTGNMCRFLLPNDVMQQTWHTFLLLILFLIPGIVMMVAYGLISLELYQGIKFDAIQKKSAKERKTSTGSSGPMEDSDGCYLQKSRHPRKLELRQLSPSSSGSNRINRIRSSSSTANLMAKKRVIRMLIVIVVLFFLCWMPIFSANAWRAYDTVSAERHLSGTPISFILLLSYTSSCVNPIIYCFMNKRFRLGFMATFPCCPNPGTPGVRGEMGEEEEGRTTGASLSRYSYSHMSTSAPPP
Description: The preparation and use of guinea-pig isolated ileum longitudinal muscle-myenteric plexus has been described by K-H Buchheit et al in Nauyn-Schmeideberg's Arch. Pharmacol, (1985), 329, p3641 and by V.L. Lucaites et al (1991) in J. Pharmacol. Exp. Ther., 256, 695-703.
The CCK-A antagonist and CCK-B antagonist activites of compounds of the invention were determined using the guinea pig isolated ileum longitudinal muscle myenteric plexus preparation. The compounds were tested using the procedure G Dal Forno et al J. Pharmacol. Exp & Ther. 261 - 1056-1063 1992 and the pKb value for each compound was determined.

rats = assay: Tolerability after oral administration to rats; type: in vivo; settings: given orally to rats at doses at which the compound exhibits anxiolytic activity
Source text: (§1) The compounds of the invention are essentially non-toxic and therapeutically useful doses.

mice [1] = assay: Tolerability after oral administration to mice; type: in vivo; settings: given orally to mice at doses at which the compound exhibits anxiolytic activity
Source text: as §1

rat = assay: Anxiolytic activity in rats (rat social interaction model); type: in vivo
Source text: (§2) For example in mice in the black-white box test and in the rat social interaction model.

mice [2] = assay: Anxiolytic activity in mice (black-white box test); type: in vivo
Source text: as §2

[3] = guinea pig isolated ileum longitudinal muscle myenteric plexus, inhibition of contractile activity of CCK-8, read-out: pKb CCK-A (converted)

Sequence of CCK-B receptor (H0VZC5 entry or part of it): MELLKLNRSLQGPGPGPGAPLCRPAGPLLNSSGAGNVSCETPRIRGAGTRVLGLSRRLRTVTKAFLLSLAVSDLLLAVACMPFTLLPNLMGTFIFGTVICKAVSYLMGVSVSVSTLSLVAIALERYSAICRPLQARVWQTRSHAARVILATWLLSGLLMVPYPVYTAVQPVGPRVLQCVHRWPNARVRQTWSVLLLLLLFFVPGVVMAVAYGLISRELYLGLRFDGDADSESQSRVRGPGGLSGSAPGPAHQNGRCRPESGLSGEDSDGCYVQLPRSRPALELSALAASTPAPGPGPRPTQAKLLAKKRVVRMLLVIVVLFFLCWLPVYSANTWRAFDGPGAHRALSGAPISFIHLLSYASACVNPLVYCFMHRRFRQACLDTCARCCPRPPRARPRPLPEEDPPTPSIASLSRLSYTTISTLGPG

Compound | Ki (CCK-B receptor) [nM] | also measured
O=C(Nc1ccccc1)NC1C(=O)N(CC2CC3C=CC2C3)c2ccccc2N(c2ccccc2)C1=O (centres unmarked) [Example 31, N-[1-(Bicyclo [2.2.1]-5-heptene-2-ylmethyl)-2,4-dioxo-5-phenyl-2,3,4,5-tetrahydro-1H-1,5-benzodiazepin-3yl]-N'-phenylurea] | 1.51 | 
CC(C)(C)C(O)CN1C(=O)C(NC(=O)Nc2ccccc2)C(=O)N(c2ccccc2F)c2ccccc21 (centres unmarked) [Example 7A, N-[1-(3,3-Dimethyl-2-hydroxybut-1-yl)-2,4-dioxo-5-(2-fluorophenyl)-2,3,4,5-tetrahydro-1H-1,5-benzodiazepin-3-yl]-N'-phenylurea] | 1.95 | 
O=C(Nc1ccccc1)NC1C(=O)N(CC23CC4CC(CC(C4)C2)C3)c2ccccc2N(c2ccccc2)C1=O (centres unmarked) [Example 14, N-[1-(1-Adamantyl)methyl-2,4-dioxo-5-phenyl-2,3,4,5-tetrahydro-1H-1,5-benzodiazepin-3-yl]-N'-phenylurea] |  | Kb (CCK-A receptors): 158 nM
CN(C)c1ccc(NC(=O)NC2C(=O)N(CCC3CCCC3)c3ccccc3N(c3ccccc3F)C2=O)cc1 (centres unmarked) [Example 30, N-[1-(2-cyclopentyl-ethyl)-2,4-dioxo-5-(2-fluorophenyl)-2,3,4,5-tetrahydro-1H-1,5-benzodiazepin-3-yl]-N'-[4-(dimethylamino)phenyl]urea] | 0.724 | 
CC(C)CCN1C(=O)C(NC(=O)Nc2ccccc2)C(=O)N(c2ccccc2)c2cc(Cl)c(Cl)cc21 (centres unmarked) [Example 11, N-[7,8-dichloro-2,4-Dioxo-1-(3-methylbut-1-yl)-5-phenyl-2,3,4,5-tetrahydro-1H-1,5-benzodiazepin-3-yl]-N'-phenylurea] | 9.77 | 
CC(C)CCN1C(=O)C(NC(=O)Nc2cccc(N(C)C)c2)C(=O)N(c2ccccc2F)c2ccccc21 (centres unmarked) [Example 4, N-[2,4-dioxo-5-(2-fluorophenyl)-1-(3-methylbut-1-yl)-2,3,4,5-tetrahydro-1H-1,5-benzodiazepin-3-yl]-N'-(3-dimethylamino)phenylurea] | 0.251 | Kb (CCK-A receptors; [3]): 3160 nM
CC(C)CCN1C(=O)C(NC(=O)Nc2ccccc2)C(=O)N(c2ccccc2)c2cc(Cl)ccc21 (centres unmarked) [Example 9, N-[7-Chloro-2,4-dioxo-1-(3-methylbut-1-yl)-5-phenyl-2,3,4,5-tetrahydro-1H-1,5-benzodiazepin-3-yl]-N'-phenylurea] | 4.9 | 
O=C(Nc1cccc([N+](=O)[O-])c1)NC1C(=O)N(CC23CC4CC(CC(C4)C2)C3)c2ccccc2N(c2ccccc2)C1=O (centres unmarked) [Example 39, N-[1-(1-Adamantylmethyl)-2,4-dioxo-5-phenyl-2,3,4,5-tetrahydro-1H-1,5-benzodiazepin-3-yl]-N'-(3-nitrophenyl)urea] | 1.91 | 
CCOC(=O)c1cccc(NC(=O)NC2C(=O)N(CC34CC5CC(CC(C5)C3)C4)c3ccccc3N(c3ccccc3)C2=O)c1 (centres unmarked) [Example 41, N-[1-(1-Adamantylmethyl)-2,4-dioxo-5-phenyl-2,3,4,5-tetrahydro-1H-1,5-benzodiazepin-3-yl]-N'-(3-ethoxycarbonylphenyl)urea] | 2.95 | 
CC(C)(C)CCN1C(=O)C(NC(=O)Nc2ccccc2)C(=O)N(c2ccccc2)c2ccccc21 (centres unmarked) [Example 16, N-[1-(3,3-Dimethylbutyl)-2,4-dioxo-5-phenyl-2,3,4,5-tetrahydro-1H-1,5-benzodiazepin-3-yl]-N'-phenylurea] | 0.676 | 
O=C(Nc1ccccc1)NC1C(=O)N(CC23CC4CC(CC(C4)C2)C3)c2ccccc2N(c2ccccc2)C1=O (single isomer, unassigned; (+)) [Example 45, (+)-N-[1-(Adamantanmethyl)-2,4-dioxo-5-phenyl-2,3,4,5-tetrahydro-1H-1,5benzodiazepin-3-yl]-N'-phenylurea] |  | untoward effects (rats): no untoward effects; Kb (CCK-A receptors): 1260 nM; untoward effects (mice [1]): no untoward effects; anxiolytic activity (rat): exhibits anxiolytic activity; anxiolytic activity (mice [2]): exhibits anxiolytic activity
CC(C)CCN1C(=O)C(NC(=O)Nc2ccccc2)C(=O)N(c2ccccc2)c2ccccc21 (centres unmarked) [Example 25, N-[2,4-Dioxo-5-phenyl-1-(3-methylbut-1-yl)-2,3,4,5-tetrahydro-1H-1,5-benzodiazepin-3-yl]-N'-phenylurea] |  | Kb (CCK-A receptors; [3]): > 1000 nM
